# Data from the supplement of paper PMC10307832.
# Key:
# Test in all cases: relative viability (nuclei count vs DMSO), 5 days (fraction); higher = more cells survive
# A-427 = test system: A-427
# Summary of the method: (§1)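 Lung cancer cell lines in 1536-well plates were dosed by pin tool the day after seeding, either with one drug alone or with a fixed anchor-drug dose plus five library-drug doses (not always all listed) in √10 steps. After 5 days, cells were fixed and their nuclei stained in one step (final 0.05% Triton X-100, 1% formaldehyde, 1 ug/ml Hoechst), then counted on 4× images. Relative viability is the nuclei count in treated wells divided by that in vehicle wells. Values are medians of duplicate plates.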
# NCI-H2023 = test system: NCI-H2023
# Summary of the method: as §1
# LC-2-ad = test system: LC-2-ad
# Summary of the method: as §1
# ABC-1 = test system: ABC-1
# Summary of the method: as §1
# NCI-H596 = test system: NCI-H596
# Summary of the method: as §1
# NCI-H727 = test system: NCI-H727
# Summary of the method: as §1
# PC-3 [JPC-3] = test system: PC-3 [JPC-3]
# Summary of the method: as §1
# NCI-H520 = test system: NCI-H520
# Summary of the method: as §1
# NCI-H650 = test system: NCI-H650
# Summary of the method: as §1
# 201T = test system: 201T
# Summary of the method: as §1
# NCI-H441 = test system: NCI-H441
# Summary of the method: as §1
# CAL-12T = test system: CAL-12T
# Summary of the method: as §1
# NCI-H1915 = test system: NCI-H1915
# Summary of the method: as §1
# NCI-H460 = test system: NCI-H460
# Summary of the method: as §1
# NCI-H661 = test system: NCI-H661
# Summary of the method: as §1
# H3255 = test system: H3255
# Summary of the method: as §1
# BEN = test system: BEN
# Summary of the method: as §1
# NCI-H2087 = test system: NCI-H2087
# Summary of the method: as §1
# NCI-H1650 = test system: NCI-H1650
# Summary of the method: as §1
# NCI-H1651 = test system: NCI-H1651
# Summary of the method: as §1
# LCLC-97TM1 = test system: LCLC-97TM1
# Summary of the method: as §1
smiles,measurement,setting,value
O=c1cc(N2CCOCC2)oc2c(-c3cccc4c3sc3ccccc34)cccc12 + CC(C)C[C@H](NC(=O)[C@H](Cc1ccccc1)NC(=O)c1cnccn1)B(O)O [Bortezomib] (partner 0.002 µM),relative viability,A-427; first compound 0.01 µM,0.991
same,relative viability,A-427; first compound 0.03162 µM,1.04
same,relative viability,A-427; first compound 0.1 µM,1.03
same,relative viability,A-427; first compound 0.3162 µM,0.871
same,relative viability,A-427; first compound 1 µM,1.03
same,relative viability,NCI-H2023; first compound 0.01 µM,1.04
same,relative viability,NCI-H2023; first compound 0.03162 µM,1.02
same,relative viability,NCI-H2023; first compound 0.1 µM,1.05
same,relative viability,NCI-H2023; first compound 0.3162 µM,0.936
same,relative viability,NCI-H2023; first compound 1 µM,0.907
same,relative viability,LC-2-ad; first compound 0.01 µM,1.15
same,relative viability,LC-2-ad; first compound 0.1 µM,1.09
same,relative viability,LC-2-ad; first compound 0.3162 µM,0.993
same,relative viability,LC-2-ad; first compound 1 µM,1.05
same,relative viability,ABC-1; first compound 0.01 µM,0.331
same,relative viability,ABC-1; first compound 0.03162 µM,0.347
same,relative viability,ABC-1; first compound 0.1 µM,0.336
same,relative viability,ABC-1; first compound 0.3162 µM,0.261
same,relative viability,ABC-1; first compound 1 µM,0.332
same,relative viability,NCI-H596; first compound 0.01 µM,0.897
same,relative viability,NCI-H596; first compound 0.03162 µM,1.07
same,relative viability,NCI-H596; first compound 0.1 µM,1.37
same,relative viability,NCI-H596; first compound 0.3162 µM,1.06
same,relative viability,NCI-H596; first compound 1 µM,1.08
same,relative viability,NCI-H727; first compound 0.01 µM,0.961
same,relative viability,NCI-H727; first compound 0.03162 µM,0.937
same,relative viability,NCI-H727; first compound 0.1 µM,0.764
same,relative viability,NCI-H727; first compound 0.3162 µM,0.84
same,relative viability,NCI-H727; first compound 1 µM,0.79
same,relative viability,PC-3 [JPC-3]; first compound 0.01 µM,0.824
same,relative viability,PC-3 [JPC-3]; first compound 0.03162 µM,0.744
same,relative viability,PC-3 [JPC-3]; first compound 0.1 µM,0.745
same,relative viability,PC-3 [JPC-3]; first compound 0.3162 µM,0.749
same,relative viability,PC-3 [JPC-3]; first compound 1 µM,0.862
same,relative viability,NCI-H520; first compound 0.01 µM,0.66
same,relative viability,NCI-H520; first compound 0.03162 µM,0.446
same,relative viability,NCI-H520; first compound 0.1 µM,0.472
same,relative viability,NCI-H520; first compound 0.3162 µM,0.64
same,relative viability,NCI-H520; first compound 1 µM,0.752
same,relative viability,NCI-H650; first compound 0.01 µM,0.845
same,relative viability,NCI-H650; first compound 0.03162 µM,0.837
same,relative viability,NCI-H650; first compound 0.3162 µM,1.12
same,relative viability,NCI-H650; first compound 1 µM,0.632
same,relative viability,201T; first compound 0.01 µM,1.07
same,relative viability,201T; first compound 0.03162 µM,1.09
same,relative viability,201T; first compound 0.1 µM,0.957
same,relative viability,201T; first compound 0.3162 µM,1.08
same,relative viability,201T; first compound 1 µM,1.1
same,relative viability,NCI-H441; first compound 0.01 µM,0.443
same,relative viability,NCI-H441; first compound 0.03162 µM,0.565
same,relative viability,NCI-H441; first compound 0.1 µM,0.487
same,relative viability,NCI-H441; first compound 0.3162 µM,0.301
same,relative viability,NCI-H441; first compound 1 µM,0.684
same,relative viability,CAL-12T; first compound 0.01 µM,0.857
same,relative viability,CAL-12T; first compound 0.1 µM,0.985
same,relative viability,CAL-12T; first compound 0.3162 µM,1.01
same,relative viability,CAL-12T; first compound 1 µM,0.925
same,relative viability,NCI-H1915; first compound 0.01 µM,0.994
same,relative viability,NCI-H1915; first compound 0.03162 µM,1.01
same,relative viability,NCI-H1915; first compound 0.1 µM,0.867
same,relative viability,NCI-H1915; first compound 0.3162 µM,0.94
same,relative viability,NCI-H1915; first compound 1 µM,0.995
same,relative viability,NCI-H460; first compound 0.01 µM,1.01
same,relative viability,NCI-H460; first compound 0.03162 µM,1.13
same,relative viability,NCI-H460; first compound 0.1 µM,1.3
same,relative viability,NCI-H460; first compound 0.3162 µM,1.06
same,relative viability,NCI-H460; first compound 1 µM,1.07
same,relative viability,NCI-H661; first compound 0.01 µM,0.681
same,relative viability,NCI-H661; first compound 0.03162 µM,0.89
same,relative viability,NCI-H661; first compound 0.1 µM,0.752
same,relative viability,NCI-H661; first compound 0.3162 µM,0.714
same,relative viability,NCI-H661; first compound 1 µM,0.756
same,relative viability,H3255; first compound 0.01 µM,0.696
same,relative viability,H3255; first compound 0.03162 µM,0.806
same,relative viability,H3255; first compound 0.1 µM,0.761
same,relative viability,H3255; first compound 0.3162 µM,0.854
same,relative viability,H3255; first compound 1 µM,0.604
same,relative viability,BEN; first compound 0.01 µM,0.867
same,relative viability,BEN; first compound 0.03162 µM,0.949
same,relative viability,BEN; first compound 0.1 µM,0.673
same,relative viability,BEN; first compound 0.3162 µM,0.793
same,relative viability,BEN; first compound 1 µM,0.712
same,relative viability,NCI-H2087; first compound 0.01 µM,0.777
same,relative viability,NCI-H2087; first compound 0.03162 µM,0.766
same,relative viability,NCI-H2087; first compound 0.1 µM,0.855
same,relative viability,NCI-H2087; first compound 0.3162 µM,0.953
same,relative viability,NCI-H2087; first compound 1 µM,1.06
same,relative viability,NCI-H1650; first compound 0.03162 µM,0.243
same,relative viability,NCI-H1650; first compound 0.1 µM,0.193
same,relative viability,NCI-H1650; first compound 0.3162 µM,0.219
same,relative viability,NCI-H1650; first compound 1 µM,0.175
same,relative viability,NCI-H1651; first compound 0.01 µM,0.897
same,relative viability,NCI-H1651; first compound 0.03162 µM,0.991
same,relative viability,NCI-H1651; first compound 0.1 µM,0.952
same,relative viability,NCI-H1651; first compound 0.3162 µM,0.939
same,relative viability,NCI-H1651; first compound 1 µM,0.871
same,relative viability,LCLC-97TM1; first compound 0.01 µM,0.678
same,relative viability,LCLC-97TM1; first compound 0.03162 µM,0.535
same,relative viability,LCLC-97TM1; first compound 0.1 µM,0.473
same,relative viability,LCLC-97TM1; first compound 0.3162 µM,0.751
same,relative viability,LCLC-97TM1; first compound 1 µM,0.406
